The results in this text go back to US12655125B2 (SIRONAX LTD., priority 2020, dated 2026).

The structures appear in SMILES notation. Like-named read-outs stand apart in the source and are kept apart here.

In the test the test system is HT-29 cells. The experiment in a line: HT29 Cells 0FBS Assay In Vitro (TNF-α/SMAC mimetic/zVAD-FMK induced necroptosis, CellTiter-Glo cell viability). Type of test: cell-based. Conditions: Homo sapiens, HT-29 cells, FBS free medium, TNF-α (10 ng/ml), SMAC mimetic (6 uM), zVAD-FMK (10 μM), 20 hours, geometric mean EC50. In outline: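 Viability was measured by ATP luminescence (CellTiter-Glo) after 20 h at 37° C of compound exposure in 10-point, 1:3 dilutions. Necroptosis in FBS-free HT-29 cultures was driven by a TNF-α (10 ng/ml), SMAC mimetic (6 μM) and zVAD-FMK (10 μM) cocktail. EC50 values are geometric means from duplicate curves.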

[1] abbreviates: read-out: Cell activity (EC50) of Compounds 1-116.
The mark [2] stands for this setting: read-out: Cell activity (EC50) of Compounds 117-281.

In the case of `Cc1nn(CC(=O)N(C)C)c(C)c1-c1cc(OC2CN(C(=O)N3N=CC[C@H]3c3cc(F)cc(F)c3)C2)c(F)cn1` [compound 95, (S)-2-(4-(4-((1-(5-(3,5-difluorophenyl)-4,5-dihydro-1H-pyrazole-1-carbonyl)azetidin-3-yl)oxy)-5-fluoropyridin-2-yl)-3,5-dimethyl-1H-pyrazol-1-yl)-N,N-dimethylacetamide], under setting [1], the EC50 fell in the range of 0.1 to 100 nM.
As for `Cn1ccnc1-c1ccc(F)c(OC2CN(C(=O)N3N=CC[C@H]3c3cc(F)cc(F)c3)C2)n1` [compound 5, (S)-(5-(3,5-difluorophenyl)-4,5-dihydro-1H-pyrazol-1-yl)(3-((3-fluoro-6-(1-methyl-1H-imidazol-2-yl)pyridin-2-yl)oxy)azetidin-1-yl)methanone], the EC50 under setting [1] lay within 0.1 to 100 nM.
On the same count and under the same terms, next, `CN(C)C(=O)CNc1cnn(C)c1-c1cc(OC2CN(C(=O)N3N=CC[C@H]3c3cc(F)cc(F)c3)C2)c(F)cn1` [compound 63, (S)-2-((5-(4-((1-(5-(3,5-difluorophenyl)-4,5-dihydro-1H-pyrazole-1-carbonyl)azetidin-3-yl)oxy)-5-fluoropyridin-2-yl)-1-methyl-1H-pyrazol-4-yl)amino)-N,N-dimethylacetamide]: 0.1 to 100 nM; `Cn1ccc(-c2ncc(F)c(OC3CN(C(=O)N4N=CC[C@H]4c4cc(F)cc(F)c4)C3)n2)n1` [compound 39, (S)-(5-(3,5-difluorophenyl)-4,5-dihydro-1H-pyrazol-1-yl)(3-((5-fluoro-2-(1-methyl-1H-pyrazol-3-yl)pyrimidin-4-yl)oxy)azetidin-1-yl)methanone]: 100 to 1000 nM.
Regarding `Cn1ncc(C(N)=O)c1-c1ccc(F)c(OC2CN(C(=O)N3N=CC[C@H]3c3cc(F)cc(F)c3)C2)n1` [compound 149, (S)-5-(6-((1-(5-(3,5-difluorophenyl)-4,5-dihydro-1H-pyrazole-1-carbonyl)azetidin-3-yl)oxy)-5-fluoropyridin-2-yl)-1-methyl-1H-pyrazole-4-carboxamide], the EC50 under setting [2] lay in the range of 0.1 to 100 nM.
On to `Cc1nsc(C)c1-c1cc(OC2CN(C(=O)N3N=CC[C@H]3c3cc(F)cc(F)c3)C2)c(F)cn1` [compound 127, (S)-(5-(3,5-difluorophenyl)-4,5-dihydro-1H-pyrazol-1-yl)(3-((2-(3,5-dimethylisothiazol-4-yl)-5-fluoropyridin-4-yl)oxy)azetidin-1-yl)methanone], for which the EC50 under setting [2] lay within 0.1 to 100 nM.
In the case of `Cc1nn(-c2cc(OC3CN(C(=O)N4N=CC[C@H]4c4cc(F)cc(F)c4)C3)c(F)cn2)c(C)c1S(N)(=O)=O` [compound 220, (S)-1-(4-((1-(5-(3,5-difluorophenyl)-4,5-dihydro-1H-pyrazole-1-carbonyl)azetidin-3-yl)oxy)-5-fluoropyridin-2-yl)-3,5-dimethyl-1H-pyrazole-4-sulfonamide], under setting [2], the EC50 lay within 0.1 to 100 nM.
As for `Cc1nn(-c2cc(OC3CN(C(=O)N4N=CC[C@H]4c4cc(F)cc(F)c4)C3)c(F)cn2)c(C)c1CC(=O)N1CCC1` [compound 222, (S)-1-(azetidin-1-yl)-2-(1-(4-((1-(5-(3,5-difluorophenyl)-4,5-dihydro-1H-pyrazole-1-carbonyl)azetidin-3-yl)oxy)-5-fluoropyridin-2-yl)-3,5-dimethyl-1H-pyrazol-4-yl)ethan-1-one], under setting [2], the EC50 was in the range of 0.1 to 100 nM.
For `Cn1nncc1-c1cc(OC2CN(C(=O)N3N=CC[C@H]3c3cc(F)cc(F)c3)C2)c(F)cn1` [compound 34, (S)-(5-(3,5-difluorophenyl)-4,5-dihydro-1H-pyrazol-1-yl)(3-((5-fluoro-2-(1-methyl-1H-1,2,3-triazol-5-yl)pyridin-4-yl)oxy)azetidin-1-yl)methanone], under setting [1], the EC50 lay in the range of 0.1 to 100 nM.
On to `CC(O)c1cnn(C)c1-c1cc(OC2CN(C(=O)N3N=CC[C@H]3c3cc(F)cc(F)c3)C2)c(F)cn1` (stereo partly drawn) [compound 179, ((S)-5-(3,5-difluorophenyl)-4,5-dihydro-1H-pyrazol-1-yl)(3-((5-fluoro-2-(4-(1-hydroxyethyl)-1-methyl-1H-pyrazol-5-yl)pyridin-4-yl)oxy)azetidin-1-yl)methanone], for which the EC50 under setting [2] fell in the range of 100 to 1000 nM.

The term EC50 denotes the concentration that produces a half-maximal response.
